Measurements published in patent publication US20250074920A1, “MACROCYCLIC COMPOUNDS AND USE AS KINASE INHIBITORS” (BLOSSOMHILL THERAPEUTICS, INC., priority 2022, published 2025).

Tests used:
Test in all cases: KINOMEscan kinase binding assay
[1] = test system: EPHB1; conditions: at 1 μM
Summary of the method: (§1)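 qPCR read-out of kinase retained on ligand-coated streptavidin beads. Binding buffer: 20% SeaBlock, 0.17×PBS, 0.05% Tween 20, 6 mM DTT; 1 h RT with shaking. % Ctrl = (test − positive control)/(negative control − positive control)×100; lower values mean stronger binding.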

[2] = test system: SYK; conditions: at 1 μM
Summary of the method: as §1

[3] = test system: EGFR; conditions: at 1 μM
Summary of the method: as §1

[4] = test system: EGFR(L747-E749del, A750P); conditions: at 1 μM
Summary of the method: as §1

[5] = test system: TEC; conditions: at 1 μM
Summary of the method: as §1

[6] = test system: FLT4; conditions: at 1 μM
Summary of the method: as §1

[7] = test system: ABL1(F317L)-phosphorylated; conditions: at 1 μM
Summary of the method: as §1

[8] = test system: TXK; conditions: at 1 μM
Summary of the method: as §1

[9] = test system: ABL1(Q252H)-nonphosphorylated; conditions: at 1 μM
Summary of the method: as §1

[10] = test system: ABL1(H396P)-nonphosphorylated; conditions: at 1 μM
Summary of the method: as §1

[11] = test system: ERBB3; conditions: at 1 μM
Summary of the method: as §1

[12] = test system: MERTK; conditions: at 1 μM
Summary of the method: as §1

[13] = test system: PDGFRB; conditions: at 1 μM
Summary of the method: as §1

[14] = test system: EGFR(E746-A750del); conditions: at 1 μM
Summary of the method: as §1

[15] = test system: KIT(D816V); conditions: at 1 μM
Summary of the method: as §1

[16] = test system: RET; conditions: at 1 μM
Summary of the method: as §1

[17] = test system: AXL; conditions: at 1 μM
Summary of the method: as §1

[18] = test system: ABL1(E255K)-phosphorylated; conditions: at 1 μM
Summary of the method: as §1

[19] = test system: EPHA7; conditions: at 1 μM
Summary of the method: as §1

[20] = test system: CSK; conditions: at 1 μM
Summary of the method: as §1

[21] = test system: MST1R; conditions: at 1 μM
Summary of the method: as §1

[22] = test system: EPHB3; conditions: at 1 μM
Summary of the method: as §1

[23] = test system: TYK2(JH1domain-catalytic); conditions: for % Ctrl: TYK2(JH1domain-catalytic), at 1 μM; for Kd: read-out: TYK2(JH1 domain-catalytic) Kd
Summary of the method: as §1

[24] = test system: ABL1(Y253F)-phosphorylated; conditions: at 1 μM
Summary of the method: as §1

[25] = test system: FYN; conditions: at 1 μM
Summary of the method: as §1

[26] = test system: FES; conditions: at 1 μM
Summary of the method: as §1

[27] = test system: RET(V804L); conditions: at 1 μM
Summary of the method: as §1

[28] = test system: ABL1-phosphorylated; conditions: at 1 μM
Summary of the method: as §1

[29] = test system: TRKB; conditions: at 1 μM
Summary of the method: as §1

[30] = test system: FGFR2; conditions: at 1 μM
Summary of the method: as §1

[31] = test system: TYRO3; conditions: at 1 μM
Summary of the method: as §1

[32] = test system: BLK; conditions: at 1 μM
Summary of the method: as §1

[33] = test system: FGFR4; conditions: at 1 μM
Summary of the method: as §1

[34] = test system: EGFR(L858R); conditions: at 1 μM
Summary of the method: as §1

[35] = test system: FLT3(D835Y); conditions: at 1 μM
Summary of the method: as §1

[36] = test system: DDR1; conditions: at 1 μM
Summary of the method: as §1

[37] = test system: ABL1(H396P)-phosphorylated; conditions: at 1 μM
Summary of the method: as §1

[38] = test system: FLT3(R834Q); conditions: at 1 μM
Summary of the method: as §1

[39] = test system: MET(M1250T); conditions: at 1 μM
Summary of the method: as §1

[40] = test system: CSF1R-autoinhibited; conditions: at 1 μM
Summary of the method: as §1

[41] = test system: EPHA5; conditions: at 1 μM
Summary of the method: as §1

C[C@@H]1COCc2nn(C)cc2-c2cc(Cl)c3c(c2)/C(=C/c2[nH]ccc2C(=O)N1)C(=O)N3 [Cpd. 4, [3a(4)Z,10R]-20-chloro-10,15-dimethyl-10,11,13,15-tetrahydro-2H-1,17-(ethanediylidene)pyrazolo[4,3-m]dipyrrolo[3,2-f:3′,4′-i][1,4]oxazacyclopentadecine-3,8(5H,9H)-dione]
% Ctrl [1]: 97%
% Ctrl [2]: 64%
% Ctrl [3]: 82%
% Ctrl [4]: 75%
% Ctrl [5]: 99%
% Ctrl [6]: 100%
% Ctrl [7]: 90%
% Ctrl [8]: 78%
% Ctrl [9]: 86%
% Ctrl [10]: 82%
% Ctrl [11]: 76%
% Ctrl [12]: 48%
% Ctrl [13]: 100%
% Ctrl [14]: 96%
% Ctrl [15]: 100%
% Ctrl [16]: 100%
% Ctrl [17]: 67%
% Ctrl [18]: 94%
% Ctrl [19]: 100%
% Ctrl [20]: 100%
% Ctrl [21]: 100%
% Ctrl [22]: 93%
% Ctrl [23]: 48%
Kd [23]: 1500 nM
% Ctrl [24]: 79%
% Ctrl [25]: 93%
% Ctrl [26]: 100%
% Ctrl [27]: 95%
% Ctrl [28]: 90%
% Ctrl [29]: 100%
% Ctrl [30]: 99%
% Ctrl [31]: 97%
% Ctrl [32]: 100%
% Ctrl [33]: 88%
% Ctrl [34]: 95%
% Ctrl [35]: 96%
% Ctrl [36]: 20%
% Ctrl [37]: 96%
% Ctrl [38]: 100%
% Ctrl [39]: 100%
% Ctrl [40]: 75%
% Ctrl [41]: 100%

Cc1cc2c([nH]1)/C=C1\C(=O)Nc3ccc(cc31)-c1c(nn(C)c1C)OCCCN(C)C2=O [Cpd. 1, [3a(4)Z]-6,9,15,16-tetramethyl-9,10,11,12-tetrahydro-15H-1,17-(ethanediylidene)pyrazolo[4,3-n]dipyrrolo[3,2-g:3′,4′-j][1,5]oxazacyclopentadecine-3,8(2H,5H)-dione]
% Ctrl [1]: 87%
% Ctrl [2]: 98%
% Ctrl [3]: 100%
% Ctrl [4]: 100%
% Ctrl [5]: 91%
% Ctrl [6]: 94%
% Ctrl [7]: 86%
% Ctrl [8]: 100%
% Ctrl [9]: 87%
% Ctrl [10]: 87%
% Ctrl [11]: 100%
% Ctrl [12]: 78%
% Ctrl [13]: 100%
% Ctrl [14]: 95%
% Ctrl [15]: 97%
% Ctrl [16]: 94%
% Ctrl [17]: 85%
% Ctrl [18]: 92%
% Ctrl [19]: 91%
% Ctrl [20]: 97%
% Ctrl [21]: 100%
% Ctrl [22]: 99%
% Ctrl [23]: 31%
Kd [23]: > 10000 nM
% Ctrl [24]: 92%
% Ctrl [25]: 91%
% Ctrl [26]: 92%
% Ctrl [27]: 82%
% Ctrl [28]: 81%
% Ctrl [29]: 87%
% Ctrl [30]: 96%
% Ctrl [31]: 100%
% Ctrl [32]: 87%
% Ctrl [33]: 95%
% Ctrl [34]: 100%
% Ctrl [35]: 97%
% Ctrl [36]: 97%
% Ctrl [37]: 96%
% Ctrl [38]: 97%
% Ctrl [39]: 83%
% Ctrl [40]: 82%
% Ctrl [41]: 93%
